Source: patent US12152030B2 (NOVOSTAR PHARMACEUTICALS, LTD., priority 2019, dated 2024)

How the values were obtained:
[1] = Pharmacokinetic study in rats; format: in vivo; settings: male, SD, plasma, rat
Description: In the examples, rat pharmacokinetic tests were performed for compounds 2 and 26 to illustrate their pharmacokinetic properties in rats.
Formulation of Liquors of Compound 2: […]
Experimental Method for Pharmacokinetic Study in Rats
(§1) Six SD rats, male, weighing 180-220 g, fasting for 12 hours, were randomly divided into 2 groups, 3 in each group. The animals in group A were intragastrically administrated with the compound liquor at a dose of 10 mg/kg; the animals in group B were intravenously administrated with the compound liquor via tails at a dose of 3 mg/kg. Blank blood was harvested before administration; about 100 μL of venous blood was harvested at different time points after administration, placed in a test tube added with heparin and centrifuged, and about 50 μL of blood plasma was collected and stored at −20° C. for testing.
Formulation of Liquors of Compound 26: […]
Formulation of solution for intravenous administration: compound 26 was dissolved in a solution of 5% DMSO+10% Solutol HS15+85% (20% HP-(3-CD physiological saline).
Formulation of suspension for intragastric administration: compound 26 was dissolved in a solution of 5% DMSO+10% Solutol HS15+85% (20% HP-(3-CD physiological saline).
Administration dosage of compound 26: 1 mg/kg for intravenous injection, 3 mg/kg for intragastric administration.
as §1, with “of 3” for “of 10”, “of 1” for “of 3”

[2] = molecular target: MNK2 (Homo sapiens, UniProt Q9HBH9); assay: MNK biological enzyme assay (HTRF kinase assay), MNK2; format: biochemical; design: purchased ThermoFisher PV5607; settings: 1 ng/μl MNK2, 1 μM STK1 peptide, 100 μM ATP
Description: (§2) A HTRF kinase assay kit (Cisbio, catalog number 62ST1PEB) was used to determine the MNK inhibitory activity of the compounds. All kinase reactions were performed in the reaction buffer (provided in the kit). The final MNK1 reaction involved 3 ng/ul recombinant MNK1 (ThermoFisher, PV6023), 1 μM MNK substrate peptide STK1 (provided in the kit), 100 μM ATP, and different concentrations of the inhibitory compounds of interest. The final MNK2 reaction involved 1 ng/μl recombinant MNK2 (ThermoFisher, PV5607), 1 μM MNK substrate peptide STK1 (provided in the kit), 100 μM ATP, and different concentrations of the inhibitory compounds of interest. The final DMSO concentration in each of the reactions was 1%.
(§3) The kinase reaction was performed in a final volume of 10 μl in a 384-well white flat-bottomed polystyrene plate. The MNK1/2 enzyme was pre-incubated with the compound and substrate peptide for 5 minutes, and then ATP was added thereto. After addition of ATP, the kinase reaction was incubated at 25° C. for 120 minutes or 60 minutes. The reaction was subsequently terminated by adding 5 μl of EU3+ substrate antibody detection reagent and 5 μl of XL665 detection reagent, and incubating for another 60 minutes. The luminescent signal was detected with an EnVision microplate reader counter (Perkin Elmer), and the signal from 10-point dilution series of the compounds was used to calculate the compound concentration (IC50) required to achieve 50% inhibition of enzyme activity.
(§4) In this respect, IC50 values which are less than 0.01 μM were marked as “+++”, which are from 0.01 to 0.1 μM were marked as “++”, and which are greater than 0.1 and up to 10.0 μM were marked as “+”, and NA meant “not detected”.

[3] = test system: Phosphorylated eIF4E; assay: Intracellular peIF4E signaling assay; format: cell-based; settings: 2 h; two hours incubation at 37° C.; read-out: peIF4E signaling cell assay IC50
Description: Phosphorylated eIF4E was determined using CisBio peIF4E assay kit (CisBio, catalog number 64EF4PEG). The cells were plated in a 96-well cell culture plate in a volume of 90 μL, and the number of cells per well was 5*10^4. The compounds (10×) were subjected to 3-fold serial dilution, added to the cell plate in a volume of 10 μL with the final DMSO concentration being 1%, and incubated at 37° C. for two hours. The cell plate was centrifuged at 300 g for 5 minutes, and the cell supernatant was carefully removed. The cell plate was immediately added with 50 μL of cell lysis buffer […] and incubated at 25° C. with shaking for at least 30 minutes. After homogenization by pipetting, 16 μL of cell lysate was transferred from the 96-well cell culture plate to a 384-well small-volume microwell plate. According to the kit instruction, an antibody mixture solution was prepared with a detection buffer, and was added in a volume of 4 μL to the 384-well small-volume microwell plate containing the cell lysate. The plate was covered with a plate sealer, incubated overnight at 25° C., and was read for fluorescence emission at two different wavelengths (665 nm and 615 nm) on the EnVision microplate reader counter. The emission ratio was imported into a GraphPadPrism software to fit the compound concentration (IC50) required for 50% inhibition of enzyme activity.
In this respect, IC50 values which are less than 0.05 μM were marked as “+++”, which are from 0.05 to 1.0 μM were marked as “++”, and which are greater than 1.0 and up to 100 μM were marked as “+”, and NA meant “not detected”.

[4] = test system: IL-10; assay: Secretion level of IL-10 in PHA-activated PBMC culture supernatants; format: cell-based, human; settings: 5 μg/ml PHA, 0.01-10 μM, 48 hours
Description: (§5) Gradient centrifugation was used to extract PBMC cells from peripheral blood of healthy people. The PBMC cells were activated with 5 μg/ml PHA (Sigma), and treated with different concentrations of compounds (0, 0.01, 0.1, 1, 3, 10 μM). After 48 hours, the cells and culture supernatants were collected, respectively. Flow cytometry was used to detect the expression of immune checkpoints, PD-1, Tim-3 and Lag-3 on cell surface, and to detect the secretion level of various cytokines (IL-6, IL-10 and TNF-α) in the cell culture supernatants.

[5] = molecular target: MNK1 (Homo sapiens, UniProt Q9BUB5); assay: MNK biological enzyme assay (HTRF kinase assay), MNK1; format: biochemical; design: purchased ThermoFisher PV6023; settings: 3 ng/ul MNK1, 1 μM STK1 peptide, 100 μM ATP
Description: as §2, §3, §4

[6] = test system: Lag-3; assay: Expression of immune checkpoint Lag-3 on cell surface of PHA-activated PBMC (flow cytometry); format: cell-based, human; settings: 5 μg/ml PHA, 0.01-10 μM, 48 hours
Description: as §5

[7] = test system: IL-6; assay: Secretion level of IL-6 in PHA-activated PBMC culture supernatants; format: cell-based, human; settings: 5 μg/ml PHA, 0.01-10 μM, 48 hours
Description: as §5

[8] = test system: PD-1; assay: Expression of immune checkpoint PD-1 on cell surface of PHA-activated PBMC (flow cytometry); format: cell-based, human; settings: 5 μg/ml PHA, 0.01-10 μM, 48 hours
Description: as §5

[9] = test system: TNF-α; assay: Secretion level of TNF-α in PHA-activated PBMC culture supernatants; format: cell-based, human; settings: 5 μg/ml PHA, 0.01-10 μM, 48 hours
Description: as §5

[10] = test system: Tim-3; assay: Expression of immune checkpoint Tim-3 on cell surface of PHA-activated PBMC (flow cytometry); format: cell-based, human; settings: 5 μg/ml PHA, 0.01-10 μM, 48 hours
Description: as §5

Sequence of MNK1 (Q9BUB5 whole entry): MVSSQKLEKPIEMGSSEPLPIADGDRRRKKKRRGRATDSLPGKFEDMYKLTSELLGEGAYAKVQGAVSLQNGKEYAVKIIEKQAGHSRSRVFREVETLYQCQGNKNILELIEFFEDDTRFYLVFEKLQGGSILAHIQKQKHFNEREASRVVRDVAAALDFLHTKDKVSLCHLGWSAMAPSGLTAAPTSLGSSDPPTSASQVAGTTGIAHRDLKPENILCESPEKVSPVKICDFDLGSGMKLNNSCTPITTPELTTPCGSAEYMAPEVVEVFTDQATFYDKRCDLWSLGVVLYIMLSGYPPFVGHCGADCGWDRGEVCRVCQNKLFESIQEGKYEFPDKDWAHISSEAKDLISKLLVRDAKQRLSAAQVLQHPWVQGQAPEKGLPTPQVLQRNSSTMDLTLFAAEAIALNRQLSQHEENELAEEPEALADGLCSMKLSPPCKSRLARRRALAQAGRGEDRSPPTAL
Sequence of MNK2 (Q9HBH9 whole entry): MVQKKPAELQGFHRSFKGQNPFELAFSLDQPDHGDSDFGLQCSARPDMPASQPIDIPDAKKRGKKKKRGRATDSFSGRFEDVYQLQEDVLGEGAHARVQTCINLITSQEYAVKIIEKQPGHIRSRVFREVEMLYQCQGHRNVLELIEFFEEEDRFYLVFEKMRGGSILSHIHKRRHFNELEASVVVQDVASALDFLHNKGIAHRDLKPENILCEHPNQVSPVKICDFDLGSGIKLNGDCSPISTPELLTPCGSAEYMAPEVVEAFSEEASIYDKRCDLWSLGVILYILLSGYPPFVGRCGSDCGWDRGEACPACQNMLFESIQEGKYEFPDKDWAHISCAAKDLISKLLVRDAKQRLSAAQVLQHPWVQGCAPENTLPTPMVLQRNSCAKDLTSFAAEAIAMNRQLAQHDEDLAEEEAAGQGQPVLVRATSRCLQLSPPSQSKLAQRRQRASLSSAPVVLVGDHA

SMILES | AUC(0-inf) ([1]; iv, 1 mg/kg) [ng·h/mL] | AUC(0-t) ([1]; iv, 1 mg/kg) [ng·h/mL] | clearance ([1]; iv, 1 mg/kg) [mL/min/kg] | half-life ([1]; iv, 1 mg/kg) [h] | Vd ([1]; iv, i.v., 1 mg/kg, read-out: Vz) [L/kg] | bioavailability ([1]; oral, p.o. 3 mg/kg vs i.v. 1 mg/kg) [%] | AUC(0-inf) ([1]; po, 3 mg/kg) [ng·h/mL] | AUC(0-t) ([1]; po, 3 mg/kg) [ng·h/mL] | Cmax ([1]; po, 3 mg/kg) [ng/mL] | Tmax ([1]; po, 3 mg/kg) [h] | half-life ([1]; po, 3 mg/kg) [h] | IC50 [2] [nM] | IC50 [3] [nM] | inhibition of secretion of IL-10 [4] | IC50 [5] [nM] | inhibition of Lag-3 expression [6] | inhibition of secretion of IL-6 [7] | inhibition of PD-1 expression [8] | inhibition of secretion of TNF-α [9] | inhibition of Tim-3 expression [10]
Cc1c2c(c(=O)n3c1C(=O)NC31CCCCC1)Nc1cc(NC(=O)C3CC3)ncc1C2 [Compound 26] | 632 | 619 | 27.2 | 3.73 | 4.14 | 21.7 | 391 | 402 | 45.2 | 1.75 | 6.97 | < 10 | < 50 | significantly inhibited | < 10 | significantly inhibited | significantly inhibited | significantly inhibited | significantly inhibited | significantly inhibited
CC(=O)Nc1cc2c(cn1)Cc1c(C)c3n(c(=O)c1N2)C1(CCCCC1)NC3=O [Compound 21, 12(N-methyl-1,5-2,5,6,11-tetrahydro-1H-spiro[cyclohexane-1-imidazo[1,5-6]pyrido[3,4-b]naphthyridine1.6][8]′-yl)acetamide] |  |  |  |  |  |  |  |  |  |  |  | < 10 |  | significantly inhibited | < 10 | significantly inhibited | significantly inhibited | significantly inhibited | significantly inhibited | significantly inhibited
